Experimental findings from patent publication US20250320233A1, “ARGINASE INHIBITOR AND PHARMACEUTICAL COMPOSITION COMPRISING THE SAME” (Daewoong Pharmaceutical Co., Ltd., priority 2022, published 2025) are described below.

Counter-ions that a name gives are not always drawn. Bounds are passed on as bounds.

Usually IC50 stands for the concentration that inhibits the measured activity by half. Low readings indicate greater potency, high ones weaker potency. As a reminder, the EC50 is the concentration at which the effect is half-maximal.

For the first assay, the target named is Arginase-1 (Homo sapiens (Human), UniProt P05089). Nature of the assay: Arginase inhibitory activity test. The assay is classed as biochemical. The settings on record: Arginase-1, L-arginine substrate, absorbance at 450 nm. On the procedure: An arginase inhibitory activity test was conducted for the compound according to the present disclosure.
Sequence of Arginase-1 (P05089 whole entry, species assumed): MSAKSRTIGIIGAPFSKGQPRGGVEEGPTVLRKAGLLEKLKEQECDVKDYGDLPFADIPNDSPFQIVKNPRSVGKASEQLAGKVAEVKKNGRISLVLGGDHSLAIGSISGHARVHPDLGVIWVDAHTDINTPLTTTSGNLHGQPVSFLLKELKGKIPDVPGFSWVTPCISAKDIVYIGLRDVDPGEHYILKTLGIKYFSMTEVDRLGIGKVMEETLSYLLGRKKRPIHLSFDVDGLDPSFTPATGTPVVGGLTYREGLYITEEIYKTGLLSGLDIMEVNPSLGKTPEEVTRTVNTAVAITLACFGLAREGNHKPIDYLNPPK
Specifically, all reagents required for evaluation were diluted in a reaction buffer (8 mM NAHPO4, 2 mM KH2PO4, pH 7.5, 137 mM NaCl, 2.7 mM KCl, and 0.05% Tween-20), and the compound was dissolved in DMSO and then diluted, and then diluted in the reaction buffer to conform to the desired concentration. 10 μL of the compound and 10 μL of 30 nM Arginase-1 were mixed in a transparent 96-well plate (SPL), and incubated at room temperature for 1 hour or more. After that, 10 μL of 15 mM L-arginine and 3 mM MnCl2 were added to the plate, and then reacted at room temperature for 30 minutes or more. Finally, 30 μL of a 1:1 mixture of reagent A (10 mM o-phthaldialdehyde, 0.4% polyoxyethylene lauryl ether, and 1.8M sulfuric acid in DW) and reagent B (1.3 mM primaquine diphosphate, 0.4% polyoxyethylene lauryl ether, and 3.6 M sulfuric acid in DW) was added to complete the enzyme reaction, and incubated at room temperature for 1 hour or more. The plate after incubation was measured for absorbance at 450 nm using a Flexstation3 multi-mode microplate reader (Molecular Devices).
The background control (BC) reading value was subtracted from all reading values to obtain the ΔOD for each reading value. The ΔOD of the enzyme control (EC) was set to the maximum value, and the % relative Arginase-1 activity of each compound (S) was calculated using the following Equation, and the IC50 value of the compound was determined using PRISM (GraphPad software).
For `C[C@H](O)[C@@H](N)C(=O)N1CC[C@H]2[C@@H]1CN[C@@]2(CCCCB(O)O)C(=O)O` [Example 5, (3aS,4R,6aR)-1-((2R,3S)-2-amino-3-hydroxybutanoyl)-4-(4-boronobutyl)octahydropyrrolo[3,4-b]pyrrole-4-carboxylic acid dihydrochloride], the IC50 is 0.1 to 1 µM.
On the same count and under the same terms, in the case of `O=C([C@@H]1CCCN1)N1CC[C@H]2[C@@H]1CN[C@@]2(CCCCB(O)O)C(=O)O` [Example 4, (3aS,4R,6aR)-4-(4-boronobutyl)-1-((S)-pyrrolidine-2-carbonyl)octahydropyrrolo[3,4-b]pyrrole-4-carboxylic acid dihydrochloride] it was 0.1 to 1 µM; in that of `CC(C)[C@H](N)C(=O)N1CC[C@H]2[C@@H]1CN[C@@]2(CCCCB(O)O)C(=O)O` [Example 6, (3aS,4R,6aR)-1-((S)-2-amino-3-methylbutanoyl)-4-(4-boronobutyl)octahydropyrrolo[3,4-b]pyrrole-4-carboxylic acid dihydrochloride], above 1 µM.
On the same count and under the same terms, in the case of `N[C@@H](Cc1ccccc1)C(=O)N1CC[C@H]2[C@@H]1CN[C@@]2(CCCCB(O)O)C(=O)O` [Example 3, (3aS,4R,6aR)-1-((S)-2-amino-3-phenylpropanoyl)-4-(4-boronobutyl)octahydropyrrolo[3,4-b]pyrrole-4-carboxylic acid dihydrochloride] it was 0.1 to 1 µM; in that of `CC(C)C[C@H](N)C(=O)N1CC[C@H]2[C@@H]1CN[C@@]2(CCCCB(O)O)C(=O)O` [Example 7, (3aS,4R,6aR)-1-((S)-2-amino-4-methylpentanoyl)-4-(4-boronobutyl)octahydropyrrolo[3,4-b]pyrrole-4-carboxylic acid dihydrochloride], above 1 µM; in that of `CNCCN1CC[C@H]2[C@@H]1CN[C@@]2(CCCCB(O)O)C(=O)O` [Example 28, (3aS,4R,6aR)-4-(4-boronobutyl)-1-(2-(methylamino)ethyl)octahydropyrrolo[2,3-c]pyrrole-4-carboxylic acid hydrochloride], 0.1 to 1 µM.
With `O=C(O)[C@]1(CCCCB(O)O)NC[C@@H]2NCC[C@@H]21` [Example 1, (3aS,4R,6aR)-4-(4-boronobutyl)octahydropyrrolo[3,4-b]pyrrole-4-carboxylic acid dihydrochloride], the IC50 is below 0.1 µM.
The same measure, in the same setting: in the case of `C[C@H](N)C(=O)N1CC[C@H]2[C@@H]1CN[C@@]2(CCCCB(O)O)C(=O)O` [Example 2, (3aS,4R,6aR)-1-((S)-2-aminopropanoyl)-4-(4-boronobutyl)octahydropyrrolo[3,4-b]pyrrole-4-carboxylic acid dihydrochloride] it was 0.1 to 1 µM; in that of `CN1CC[C@H]2[C@@H]1CN[C@@]2(CCCCB(O)O)C(=O)O` [Example 27, (3aS,4R,6aR)-4-(4-boronobutyl)-1-methyloctahydropyrrolo[3,4-b]pyrrole-4-carboxylic acid hydrochloride], below 0.1 µM.
Compound `C[C@@H](N)C(=O)N1CC[C@H]2[C@@H]1CN[C@@]2(CCCCB(O)O)C(=O)O` [Example 9, (3aS,4R,6aR)-1-((R)-2-aminopropanoyl)-4-(4-boronobutyl)octahydropyrrolo[3,4-b]pyrrole-4-carboxylic acid dihydrochloride] gave a concentration for half-maximal inhibition (IC50) above 1 µM.

For the next assay, the system named is Primary Peripheral Blood Mononuclear Cells (PBMC). Nature of the assay: PBMC activity evaluation test (T cell proliferation suppressed by synthetic arginase 1, CellTiter-Glo). In kind it is cell-based. The conditions noted are these: PBMC with α-CD3/α-CD28 antibodies and synthetic arginase 1, 72 hours, CellTiter-Glo luminescence; read-out: EC50. How it is done: A Primary Peripheral Blood Mononuclear Cells (PBMC) activity test was performed for the compound according to the present disclosure. […] To evaluate the proliferation of T cells, the CellTiter-Glo® Luminescent Cell Viability (Promega, Catalog #G7571) evaluation method was used, which can confirm the proliferation of cells by quantifying the ATP present in the cells. In addition to the compound according to the present disclosure, the compound CB-1158 (Numidargistat) was also tested together for comparison.
Specifically, α-CD3 antibody was coated on a clear 96-well microplate. 1×10^5 PBMC cells were placed in each well. RPMI media (10% FBS, 1% penicillin/streptomycin) was used as the cell culture medium. α-CD28 antibody and synthetic arginase 1 were added to each well. The compounds prepared in Examples were treated at different concentrations (2, 1, 0.5, 0.25, 0.125, 0.0625, 0.03125 μM). After incubating for 72 hours, 50 μL of cells from each well were transferred to a white 96-well microplate, and mixed with 50 μL of CellTiter-Glo® solution.
After performing the reaction at room temperature for 10 minutes in the state where light was blocked, the luminescence was measured. The measurement results for each compound were calculated using Excel, and the EC50 value was calculated using GraphPad Prism software.
A general note: In ATP-based viability assays light output follows the ATP content of the culture.
As to `O=C(O)[C@]1(CCCCB(O)O)NC[C@@H]2NCC[C@@H]21` [Example 1, (3aS,4R,6aR)-4-(4-boronobutyl)octahydropyrrolo[3,4-b]pyrrole-4-carboxylic acid dihydrochloride], the EC50 is below 0.1 µM.

Staying with this assay, now noted: PBMC, 72 h.
Consider `C[C@H](N)C(=O)N1C[C@H](CCCB(O)O)[C@](N)(C(=O)O)C1` [CB-1158 (Numidargistat), Numidargistat, reference compound], for which the half-maximal effective concentration (EC50) lay within 0.1 to 0.5 µM.
